Reference: US20260234146A1, “Use of Hypoxia-Inducible Factor-Prolyl Hydroxylase Inhibitor (HIF-PHI) in Rare Anemia” (Kind Pharmaceutical, priority 2023, published 2026)
Marks after values point to notes of the source that are not given here.

Key:
MDS model mice [1] = assay: Effect on MDS model mice (RBC, Hb, HCT); assay type: in vivo, C57 mice; details: 50 U/30 g
Townes SCD model mouse = assay: Effect on SCD anemia mice (RBC, Hb, HCT); assay type: in vivo
Protocol: Throughout the experimental stage, animals were housed in cages in an animal room with 24-hour continuous central air conditioning, temperature set at 20-26° C., relative air humidity set at 40-70%, and a 12-hour light/dark cycle. All animals had free access to food and sterilized drinking water. The animal strain was B6·Cg-Hbb^tm2(HBG1,HBB)Tow/Hbat^ml(HBA)Tow/ShmtJ mice, a Townes SCD model mouse where mouse endogenous hemoglobin is replaced by knocked-in human hemoglobin. Two weeks after birth, mice were ear-punched for identification, and the ear tissue was collected for PCR analysis to determine its genotype. Mice confirmed as B6·Cg-Hbb^tm2(HBG1,HBB)Tow/Hbat^ml(HBA)Tow/ShmtJ were grouped. […] Blood sampling was performed every other week. Mice showing symptoms of anemia were selected for dosing. Animals were randomly divided into groups, 6 animals per group: Vehicle control group (0.1 M meglumine aqueous solution; oral gavage; volume: 6.67 mL/kg), Comp-1 group (30 mpk; oral gavage; volume: 6.67 mL/kg), and EPO group (50 U/30 g body weight; SC injection; MyBioSource, cat. #: MBS650094, erythropoietin alpha). Dosing was administered three times a week (TIW) for 4 consecutive weeks. On days 14 and 28 of dosing, 70 μL of blood was collected from orbit. Collected blood samples were placed in heparin-anticoagulant tubes. 15 μL of the blood sample from the anticoagulant tube was aspirated and added to an Element HT5 Veterinary Hematology Analyzer. RBC, Hb, and HCT in the blood were measured according to the instrument's operating instructions. Data analysis was performed using GraphPad Prism 9.0. […]

MDS model mice [2] = assay: Effect on MDS model mice (RBC, Hb, HCT); assay type: in vivo, C57 mice
Protocol: Throughout the experimental stage, animals were housed in cages in an animal room with 24-hour continuous central air conditioning, temperature set at 20-26° C., relative air humidity set at 40-70%, and a 12-hour light/dark cycle. All animals had free access to food and sterilized drinking water. The C57 mice used in the experiment contained three knocked-in genes in their genome: Vav1-Cre, LSL, and c-Myc(T58A/S62E). Only animals positive for all three genes were used in the experiment. Expression of Vav1-Cre can induce cleavage at the LSL site, thereby allowing tTA gene expression. After induction with Doxycycline, tTA can bind to promoter of the c-Myc(T58A/S62E) gene, driving its expression, so that the animals develop an MDS phenotype. When the mice reached approximately 8 weeks of age, modeling commenced. They were fed a special diet (containing 200 mg doxycycline per kg of feed) for 4 weeks. Mice were anesthetized on days 0, 14, and 28, and 70 μl of blood was collected from the orbit to measure RBC, Hb, and HCT levels, confirming successful establishment of the MDS model. Subsequently, the mice were randomly divided into 3 groups, with 10 mice per group: Vehicle control group (0.1 M meglumine), Comp-1 low-dose group (10 mg/kg), and Comp-1 high-dose group (30 mg/kg). The dosing or vehicle volume was 6.67 mL/kg. The dosing or vehicle frequency for each group was oral gavage three times per week (TIW) for 4 consecutive weeks. That is, from week 4 to week 8 constituted the treatment period. Mice were anesthetized 14 days (experimental week 6) and 28 days (experimental week 8) after the start of dosing, and 70 μl of blood was collected from the orbit. Collected blood samples were placed in heparin-anticoagulant tubes, and RBC, Hb, and HCT levels in the blood were measured. After blood collection at the final time point for each animal, the animals were euthanized, and corresponding organ tissues were collected for storage and potential future use. Detection instrument: Element HT5 Veterinary Hematology Analyzer; Supplier: HESKA. Data analysis was performed using GraphPad Prism 9.0.

Hbb^d3th/d3th mice = assay: Effect on homozygous β-thalassemia mice (CBC analysis); assay type: in vivo; parameters: HGB Hemoglobin content: unit not given here
Protocol: Throughout the experimental stage, animals were housed in cages in an animal room with 24-hour continuous central air conditioning, temperature set at 20-26° C., relative air humidity set at 40-70%, and a 12-hour light/dark cycle. All animals had free access to food (irradiated sterile feed) and water (prepared by an ultrapure water system). The mouse strain used in the experiment was: Hbb^d3th/d3th mice; female and male, 9-15 weeks old, weighing 25-30 grams. The breeding method involved one male paired with two females. Male mice with the Hbb^d3th/d3th genotype, and female mice with the Hbb^d3th/+ genotype were selected. At one week of age, tissue DNA was extracted from toe clips of offspring. Subsequently, PCR amplification and agarose gel electrophoresis for band separation were used for genotyping. Before the experiment, secondary genotyping was performed on mice of appropriate age, and mice with no significant differences in body weight and appearance were selected as experimental animals. Vehicle 1 (0.1 M meglumine aqueous solution) was prepared by dissolving an appropriate amount of meglumine (0.586 g) in an appropriate amount of deionized water (30 mL) with stirring to prepare the vehicle. After preparation, the vehicle was aliquoted into daily doses and stored at 5±3° C. Before administration, it was stirred at room temperature for at least 10 minutes and stirred continuously during the dosing process.
Comp-1: The required amount of Comp-1 was weighed, completely dissolved in an appropriate volume of Vehicle 1, with stirring and sonicating to form a solution. After visually observing dissolution, vehicle was gradually added to reach the specified volume. Before daily dosing, the formulations (including vehicle) were removed from refrigerator and allowed to reach room temperature. Formulations were stirred at room temperature for at least 10 minutes before administration and stirred throughout the dosing process. The route of administration was oral gavage for all groups, with a dosing volume of 10 mL/kg for all groups, and a dosing frequency of daily for a total of 42 days.
On days 0, 15, 29, and 43 of dosing, 50 μl of blood was collected from orbit of mice, stored at 4° C., and allowed to return to room temperature before analysis. Samples were then gently mixed and added to pre-prepared diluent (blood:diluent=1:6). Data were obtained using the instrument's pre-dilution mode for detection. Data statistics were processed and analyzed using Microsoft Office Excel (Microsoft Corporation, version 2013, Redmond, WA, USA) and GraphPad Prism 7.0. Red blood cell counts and percentages were reported with two significant FIGURES. T-test analysis was used for comparisons of blood cell counts and percentages between groups and within groups at different time points.

[3] = 50 U/30 g SC TIW, After 2 weeks of dosing Week 2
[4] = 50 U/30 g SC TIW, After 4 weeks of dosing Week 4
[5] = 50 U/30 g group, Before dosing Week 0
[6] = 30 mpk oral gavage TIW group, baseline, average of six mice
[7] = 30 mpk oral gavage TIW, end of the four-week experiment, average of five mice
[8] = 10 mg/kg group, Before dosing Week 4
[9] = 10 mg/kg group, Pre-modeling Week 0
[10] = 10 mg/kg oral TIW, After 2 weeks of dosing Week 6
[11] = 10 mg/kg oral TIW, After 4 weeks of dosing Week 8
[12] = 30 mg/kg group, Before dosing Week 4
[13] = 30 mg/kg group, Pre-modeling Week 0
[14] = 30 mg/kg oral TIW, After 2 weeks of dosing Week 6
[15] = 30 mg/kg oral TIW, After 4 weeks of dosing Week 8
[16] = 30 mg/kg group, Before dosing Week 0
[17] = 30 mg/kg oral TIW, After 2 weeks of dosing Week 2
[18] = 30 mg/kg oral TIW, After 4 weeks of dosing Week 4

## EPO: EPO positive control; MyBioSource, cat. #: MBS650094, erythropoietin alpha
MDS model mice [1]
  Improvement of RBC, Hb, or HCT values: Neither Roxadustat nor EPO improved RBC, Hb, or HCT values
Townes SCD model mouse; [3]
  Arithmetic mean of HCT hematocrit: 25.02%
  Arithmetic mean of HGB hemoglobin content: 7.52 g/dL
  Arithmetic mean of RBC red blood cell count: 5.80 M/μL
Townes SCD model mouse; [4]
  Arithmetic mean of HCT hematocrit: 23.25%
  Arithmetic mean of HGB hemoglobin content: 6.87 g/dL
  Arithmetic mean of RBC red blood cell count: 5.43 M/μL
Townes SCD model mouse; [5]
  Arithmetic mean of HCT hematocrit: 27.00%
  Arithmetic mean of HGB hemoglobin content: 8.37 g/dL
  Arithmetic mean of RBC red blood cell count: 6.25 M/μL
Townes SCD model mouse; 50 U/30 g, SC injection, TIW, 4 weeks
  Therapeutic effect in the SCD mouse model: no therapeutic effect in the SCD mouse model

## O=C(O)CNC(=O)C1C(=O)N(C2CCCCC2)C(=O)N(C2CCCCC2)C1=O [Daprodustat, reference compound]
Townes SCD model mouse; [6]
  HCT: 31.8%
  Hb: 9.1 g/dL
  RBC: 6.14 M/μL
Townes SCD model mouse; [7]
  HCT: 35.9%
  Hb: 10.9 g/dL
  RBC: 7.54 M/μL
Townes SCD model mouse; 30 mpk, oral gavage, TIW, after two weeks of dosing
  Mortality: One mouse in the Daprodustat group including six mice in total died

## O=C(O)CNC(=O)C1=C(O)C2(CCCC2)n2c(ccc2-c2ccccc2)C1=O [Comp-1, (6′-hydroxy-8′-oxo-3′-phenyl-8′H-spiro[cyclopentane-1,5′-indolizine]-7′-carbonyl)glycine]
MDS model mice [2]; [8]
  HCT Hematocrit: 28.12%
  Hb Hemoglobin content: 9.52 g/dL
  RBC Red Blood Cell Count: 6.03 M/μL
MDS model mice [2]; [9]
  HCT Hematocrit: 43.35%
  Hb Hemoglobin content: 14.90 g/dL
  RBC Red Blood Cell Count: 9.00 M/μL
MDS model mice [2]; [10]
  HCT Hematocrit: 34.36%
  Hb Hemoglobin content: 10.97 g/dL
  RBC Red Blood Cell Count: 6.33 M/μL
MDS model mice [2]; [11]
  HCT Hematocrit: 37.52%
  Hb Hemoglobin content: 11.77 g/dL
  RBC Red Blood Cell Count: 7.17 M/μL
MDS model mice [2]; [12]
  HCT Hematocrit: 28.01%
  Hb Hemoglobin content: 9.54 g/dL
  RBC Red Blood Cell Count: 5.90 M/μL
MDS model mice [2]; [13]
  HCT Hematocrit: 43.32%
  Hb Hemoglobin content: 14.37 g/dL
  RBC Red Blood Cell Count: 9.01 M/μL
MDS model mice [2]; [14]
  HCT Hematocrit: 43.13%
  Hb Hemoglobin content: 13.56 g/dL
  RBC Red Blood Cell Count: 7.11 M/μL
MDS model mice [2]; [15]
  HCT Hematocrit: 47.41%
  Hb Hemoglobin content: 14.91 g/dL
  RBC Red Blood Cell Count: 8.46 M/μL
Hbb^d3th/d3th mice; 5 mpk group, Day 0 (pre-dose)
  HCT Hematocrit: 27.58%
  HGB Hemoglobin content: 74.60
  RBC Red Blood Cell Count: 7.90 10^12/L
Hbb^d3th/d3th mice; 5 mpk oral daily, Day 15
  HCT Hematocrit: 31.16# %
  HGB Hemoglobin content: 81.20
  RBC Red Blood Cell Count: 8.35 10^12/L
Hbb^d3th/d3th mice; 5 mpk oral daily, Day 29
  HCT Hematocrit: 32.10## %
  HGB Hemoglobin content: 83.00
  RBC Red Blood Cell Count: 8.59 10^12/L
Hbb^d3th/d3th mice; 5 mpk oral daily, Day 43
  HCT Hematocrit: 31.04## %
  HGB Hemoglobin content: 80.20
  RBC Red Blood Cell Count: 8.58 10^12/L
Hbb^d3th/d3th mice; 10 mpk group, Day 0 (pre-dose)
  HCT Hematocrit: 26.20%
  HGB Hemoglobin content: 74.80
  RBC Red Blood Cell Count: 7.90 10^12/L
Hbb^d3th/d3th mice; 10 mpk oral daily, Day 15
  HCT Hematocrit: 31.92## %
  HGB Hemoglobin content: 83.60
  RBC Red Blood Cell Count: 8.60## 10^12/L
Hbb^d3th/d3th mice; 10 mpk oral daily, Day 29
  HCT Hematocrit: 33.02## %
  HGB Hemoglobin content: 88.04
  RBC Red Blood Cell Count: 9.15# 10^12/L
Hbb^d3th/d3th mice; 10 mpk oral daily, Day 43
  HCT Hematocrit: 33.36### %
  HGB Hemoglobin content: 89.40
  RBC Red Blood Cell Count: 9.30## 10^12/L
Hbb^d3th/d3th mice; 15 mpk group, Day 0 (pre-dose)
  HCT Hematocrit: 27.48%
  HGB Hemoglobin content: 75.00
  RBC Red Blood Cell Count: 7.77 10^12/L
Hbb^d3th/d3th mice; 15 mpk oral daily, Day 15
  HCT Hematocrit: 34.50## %
  HGB Hemoglobin content: 90.17
  RBC Red Blood Cell Count: 8.95# 10^12/L
Hbb^d3th/d3th mice; 15 mpk oral daily, Day 29
  HCT Hematocrit: 36.13### %
  HGB Hemoglobin content: 97.5
  RBC Red Blood Cell Count: 9.72#### 10^12/L
Hbb^d3th/d3th mice; 15 mpk oral daily, Day 43
  HCT Hematocrit: 36.10#### %
  HGB Hemoglobin content: 94.83
  RBC Red Blood Cell Count: 9.45#### 10^12/L
Townes SCD model mouse; [16]
  Arithmetic mean of HCT hematocrit: 27.20%
  Arithmetic mean of HGB hemoglobin content: 8.47 g/dL
  Arithmetic mean of RBC red blood cell count: 6.34 M/μL
Townes SCD model mouse; [17]
  Arithmetic mean of HCT hematocrit: 40.05%
  Arithmetic mean of HGB hemoglobin content: 11.63 g/dL
  Arithmetic mean of RBC red blood cell count: 8.88 M/μL
Townes SCD model mouse; [18]
  Arithmetic mean of HCT hematocrit: 41.45%
  Arithmetic mean of HGB hemoglobin content: 12.10 g/dL
  Arithmetic mean of RBC red blood cell count: 9.09 M/μL
